{"source": "paper PMC10097024", "about": "“Cytotoxic and Antibacterial Prenylated Acylphloroglucinols from Hypericum olympicum L” (Plants, 2023)", "key": {"MRSA biofilm": {"test_system": "MRSA biofilm", "experiment": "Biofilm assay of MRSA", "type": "cell-based, Staphylococcus aureus", "conditions": "for Absorbance at 550 nm of the MRSA biofilm (crystal violet): replicate wells; for IC50: read-out: MBIC50 (median biofilm inhibitory concentration)", "description": "The Gram-positive bacterial strains that were examined for susceptibility were: Staphylococcus aureus (ATCC 29213, American Type Cell Culture Collection, Manassas, VA, USA), Staphylococcus aureus—MRSA (NBIMCC 8327-resistant to methicillin and oxacillin, National Bulgarian Collection for Industrial Microorganisms and Cell Cultures, Sofia, Bulgaria), Enterococcus faecalis (ATCC 29212) and Streptococcus pyogenes (SAIMC 10535, Collection of the Stephan Angeloff Institute of Microbiology, Sofia, Bulgaria). The only Gram-negative bacterial strain used was Escherichia coli (ATCC 35218). Bacteria were maintained in Trypticase Soy Broth (TSB, Himedia, India) at 37 °C, aerobic conditions. For the experiments brain heart infusion (BHI) broth (#M210 HiMedia, Mumbai, India) was used for E. faecalis and S. pyogenes and Mueller Hinton broth (MHB, #M0405B) from Thermo Scientific-Oxoid (Basingstoke, UK)—for all other strains.\nThe bacterial inoculum was prepared as described above for the BMD. […] After that an optimized protocol was applied for the visualization of the biofilm. Firstly, the supernatant was removed, and planktonic cells were removed by washing the wells carefully 3× with 200 μL/well PBS. Then, fixing of the remaining cells was performed by incubation with 200 μL/well methanol for 15 sec at room temperature. The methanol was removed and the plate was dried by air for 5–10 s. Next, 50 μL of 2% Hucker crystal violet was poured into the wells and excess stain was rinsed off by running tap water. After that, the cells were air dried and the biofilm formation in the wells was documented microscopically (40×, Inverted trinocular biological microscope model BIB-100 and digital camera B-CAM16, application software B-View, Boeco, Hamburg, Germany). Then the dye bound to biofilm in the wells was re-solubilized with 160 μL 33% acetic acid and the absorbance of each well was measured at 550 nm with lid (Table S1 in Supplementary Materials). […] MBIC were assessed visually and MBIC50 were calculated by GraphPad Prism software with a mathematical model for a dose–response relationship (variable slope) after normalization of the data and logarithmic transformation of the applied concentrations (X-data)."}, "K-562": {"test_system": "K-562", "experiment": "MTT cytotoxicity test", "type": "cell-based, human", "description": "(§1) The group of human cell lines used in this study were represented by the tumor cell lines MDA-MB (breast carcinoma), EJ (urinary bladder carcinoma), K-562 (chronic myeloid leukemia), HL-60 (acute pre-myeloid leukemia), HL-60/DOX (multi-drug resistant HL-60 cell line, with over expression of MRP-1) and the non-tumorigenic cell lines HEK-293 (embryonic kidney cells) and EA.hy926 (vascular endothelial cells). EJ, HL60 and EA.hy926 were purchased from American Type Culture Collection (ATCC) (Manassas, Virginia). The other cell lines were purchased from the German Collection of Microorganisms and Cell Cultures (DSMZ GmbH, Braunschweig, Germany). HL-60/DOX cell lines were generated by periodically treating HL-60 cells with anthracyclins. The conditions in which the cell culture flasks were maintained were as follows: 37 °C in an incubator “BB 16-Function Line” Heraeus (Kendro, Hanau, Germany) with 5% CO2 humidified atmosphere. The growth medium was 90% RPMI-1640, supplemented with 10% FBS and 2 mM L-glutamine. MDA-MB-231, EJ, HEK-293 and EA.hy926 cells were maintained as adherent monolayer cultures while all the other (leukemic) cell lines were grown as suspension type cultures. Cells were maintained in log phase: the adherent cell lines were subjected to trypsinization 1–2 times a week and the leukemic cell lines were passaged 2–3 times a week by removing of part of the cellular suspension and substituting it with fresh medium.\n(§2) The evaluation of cytotoxic activity was conducted by MTT test as described previously. The median inhibitory concentration (IC50) values which represent the half-maximal concentration values were calculated from sigmoidal concentration–response curves, using non-linear regression analysis (Curve fit, GraphPad Prizm 5.0 software, GraphPad Software Inc., San Diego, CA, USA). The selectivity index was calculated as the ratio of the IC50 of a non-cancerous line (HEK-293 or EA.hy926) and the average IC50 of all chemosensitive tested tumor cell lines (x). Therefore, SI=IC50HEK-293/IC50x . The resistance index (RI) was calculated as the ratio of IC50 of the multi-drug resistant HL-60/DOX cell line and the IC50 of its parent cell line: RI=IC50HL-60/DOX/IC50HL-60 ."}, "HL-60": {"test_system": "HL-60", "experiment": "MTT cytotoxicity test", "type": "cell-based, human", "conditions": "HL-60, 72 h exposure", "description": "as §1, §2"}, "MDA-MB-231": {"test_system": "MDA-MB-231", "experiment": "MTT cytotoxicity test", "type": "cell-based, human", "conditions": "MDA-MB-231, 72 h exposure", "description": "as §1, §2"}, "EA.hy926": {"test_system": "EA.hy926", "experiment": "MTT cytotoxicity test", "type": "cell-based, human", "description": "as §1, §2"}, "EJ": {"test_system": "EJ", "experiment": "MTT cytotoxicity test", "type": "cell-based, human", "conditions": "72 h exposure", "description": "as §1, §2"}, "HL-60/DOX": {"test_system": "HL-60/DOX", "experiment": "MTT cytotoxicity test", "type": "cell-based, human", "conditions": "72 h exposure", "description": "as §1, §2"}, "HEK-293": {"test_system": "HEK-293", "experiment": "MTT cytotoxicity test", "type": "cell-based, human", "description": "as §1, §2"}, "[1]": {"conditions": "MRSA biofilm, assessed visually"}, "[2]": {"conditions": "Staphylococcus aureus, MRSA biofilm, interval in brackets"}, "[3]": {"conditions": "Homo sapiens, K562, K-562, 72 h exposure"}, "[4]": {"conditions": "Homo sapiens, EA.hy 926, EA.hy926, 72 h exposure"}, "[5]": {"conditions": "Homo sapiens, HEK293, HEK-293, 72 h exposure"}, "[6]": {"conditions": "MRSA biofilm, interval in brackets"}}, "note": "Where “and” joins values, the source holds several entries; their conditions need not be identical. Equal entries are not always repeated. Where two headings read alike, the source gives them in different places.", "data": [{"molecule": "CC(C)=CCC[C@]1(C)[C@@H](CC=C(C)C)C[C@]2(C)C(=O)C(CC=C(C)C)=C(O)[C@@]1(C(=O)C(C)C)C2=O", "note": "[Compound 3, hyperpolyphyllirin/hyperibine J]", "values": [{"measurement": "Absorbance at 550 nm of the MRSA biofilm (crystal violet)", "setting": "MRSA biofilm; 0.125 mg/L", "value": "0.347 and 0.336"}, {"measurement": "Absorbance at 550 nm of the MRSA biofilm (crystal violet)", "setting": "MRSA biofilm; 0.25 mg/L", "value": "0.376 and 0.403"}, {"measurement": "Absorbance at 550 nm of the MRSA biofilm (crystal violet)", "setting": "MRSA biofilm; 0.5 mg/L", "value": "0.276 and 0.394"}, {"measurement": "Absorbance at 550 nm of the MRSA biofilm (crystal violet)", "setting": "MRSA biofilm; 1 mg/L", "value": "0.249 and 0.184"}, {"measurement": "Absorbance at 550 nm of the MRSA biofilm (crystal violet)", "setting": "MRSA biofilm; 2 mg/L", "value": "0.353 and 0.444"}, {"measurement": "Absorbance at 550 nm of the MRSA biofilm (crystal violet)", "setting": "MRSA biofilm; 4 mg/L", "value": "0.110 and 0.099"}, {"measurement": "MBIC", "setting": "MRSA biofilm; MRSA biofilm", "value": 4, "unit": "mg/L"}, {"measurement": "MBIC (minimum biofilm inhibitory concentration)", "setting": "MRSA biofilm; MRSA biofilm", "value": 8.29, "unit": "µM"}, {"measurement": "MBIC (minimum biofilm inhibitory concentration)", "setting": "MRSA biofilm; [1]", "value": 4.0, "unit": "mg/L"}, {"measurement": "IC50", "setting": "MRSA biofilm; [2]", "value": "0.17 µg/mL and 350 nM"}, {"measurement": "IC50", "setting": "K-562; [3]", "value": "3.17 ± 0.3", "unit": "µM"}, {"measurement": "IC50", "setting": "HL-60; Homo sapiens", "value": "10.9 ± 1.9", "unit": "µM"}, {"measurement": "IC50", "setting": "MDA-MB-231; Homo sapiens", "value": "2.63 ± 0.3", "unit": "µM"}, {"measurement": "IC50", "setting": "EA.hy926; [4]", "value": "19.9 ± 3.1", "unit": "µM"}, {"measurement": "IC50", "setting": "EJ; Homo sapiens", "value": "8.02 ± 1.6", "unit": "µM"}, {"measurement": "IC50", "setting": "HL-60/DOX; Homo sapiens", "value": "1.28 ± 0.2", "unit": "µM"}, {"measurement": "IC50", "setting": "HEK-293; [5]", "value": "10.7 ± 2.1", "unit": "µM"}]}, {"molecule": "(1R,5R,7S,8R)-4-hydroxy-5,8-dimethyl-3,7-bis(3-methylbut-2-en-1-yl)-1-(2-methylbutanoyl)-8-(4-methylpent-3-en-1-yl)bicyclo[3.3.1]non-3-ene-2,9-dione [Compound 4]", "values": [{"measurement": "Absorbance at 550 nm of the MRSA biofilm (crystal violet)", "setting": "MRSA biofilm; 0.78 mg/L", "value": "0.324 and 0.229 and 0.230"}, {"measurement": "Absorbance at 550 nm of the MRSA biofilm (crystal violet)", "setting": "MRSA biofilm; 1.56 mg/L", "value": "0.248 and 0.194 and 0.193"}, {"measurement": "Absorbance at 550 nm of the MRSA biofilm (crystal violet)", "setting": "MRSA biofilm; 3.13 mg/L", "value": "0.264 and 0,195 and 0,139"}, {"measurement": "Absorbance at 550 nm of the MRSA biofilm (crystal violet)", "setting": "MRSA biofilm; 6.25 mg/L", "value": "0.184 and 0.121 and 0.092"}, {"measurement": "Absorbance at 550 nm of the MRSA biofilm (crystal violet)", "setting": "MRSA biofilm; 12.5 mg/L", "value": "0.152 and 0.150 and 0.072"}, {"measurement": "MBIC (minimum biofilm inhibitory concentration)", "setting": "MRSA biofilm; MRSA biofilm", "value": 25.17, "unit": "µM"}, {"measurement": "MBIC (minimum biofilm inhibitory concentration)", "setting": "MRSA biofilm; [1]", "value": 12.5, "unit": "mg/L"}, {"measurement": "MBIC50 (median biofilm inhibitory concentration)", "setting": "MRSA biofilm; [6]", "value": "0.67 (0.39 to 1.17) mg/L"}, {"measurement": "IC50", "setting": "MRSA biofilm; [6]", "value": 1.35, "unit": "µM"}, {"measurement": "IC50", "setting": "K-562; K-562, 72 h exposure", "value": "17.2 ± 3", "unit": "µM"}, {"measurement": "IC50", "setting": "HL-60", "value": "22.2 ± 3.4", "unit": "µM"}, {"measurement": "IC50", "setting": "MDA-MB-231", "value": "12.5 ± 2.1", "unit": "µM"}, {"measurement": "IC50", "setting": "EA.hy926; EA.hy926, 72 h exposure", "value": "5.34 ± 1.9", "unit": "µM"}, {"measurement": "IC50", "setting": "EJ", "value": "8.06 ± 1.7", "unit": "µM"}, {"measurement": "IC50", "setting": "HL-60/DOX", "value": "12.2 ± 3.2", "unit": "µM"}, {"measurement": "IC50", "setting": "HEK-293; HEK-293, 72 h exposure", "value": "35.8 ± 4.4", "unit": "µM"}]}, {"molecule": "CC(C)=CCC[C@]1(C)[C@@H](CC=C(C)C)C[C@H]2C(=O)[C@]1(C(=O)C(C)C)C(=O)C(CC=C(C)C)=C2O", "note": "[Compound 5, (1S,5R,7S,8R)-4-hydroxy-1-isobutyryl-8-methyl-3,7-bis(3-methylbut-2-en-1-yl)-8-(4-methylpent-3-en-1-yl)bicyclo[3.3.1]non-3-ene-2,9-dione]", "values": [{"measurement": "Absorbance at 550 nm of the MRSA biofilm (crystal violet)", "setting": "MRSA biofilm; 0.063 mg/L", "value": "0.978 and 1.044"}, {"measurement": "Absorbance at 550 nm of the MRSA biofilm (crystal violet)", "setting": "MRSA biofilm; 0.125 mg/L", "value": "0.926 and 0.790"}, {"measurement": "Absorbance at 550 nm of the MRSA biofilm (crystal violet)", "setting": "MRSA biofilm; 0.25 mg/L", "value": "0.592 and 0.502"}, {"measurement": "Absorbance at 550 nm of the MRSA biofilm (crystal violet)", "setting": "MRSA biofilm; 0.5 mg/L", "value": "0.534 and 0.342"}, {"measurement": "Absorbance at 550 nm of the MRSA biofilm (crystal violet)", "setting": "MRSA biofilm; 1 mg/L", "value": "0.332 and 0.406"}, {"measurement": "MBIC", "setting": "MRSA biofilm; MRSA biofilm", "value": 0.5, "unit": "mg/L"}, {"measurement": "MBIC (minimum biofilm inhibitory concentration)", "setting": "MRSA biofilm; MRSA biofilm", "value": 1.07, "unit": "µM"}, {"measurement": "MBIC (minimum biofilm inhibitory concentration)", "setting": "MRSA biofilm; [1]", "value": 0.5, "unit": "mg/L"}, {"measurement": "IC50", "setting": "MRSA biofilm; [2]", "value": "0.05 µg/mL and 120 nM"}, {"measurement": "IC50", "setting": "K-562; [3]", "value": "1.58 ± 0.1", "unit": "µM"}, {"measurement": "IC50", "setting": "HL-60; Homo sapiens", "value": "1.16 ± 0.1", "unit": "µM"}, {"measurement": "IC50", "setting": "MDA-MB-231; Homo sapiens", "value": "1.31 ± 0.2", "unit": "µM"}, {"measurement": "IC50", "setting": "EA.hy926; [4]", "value": "9.43 ± 2", "unit": "µM"}, {"measurement": "IC50", "setting": "EJ; Homo sapiens", "value": "1.21 ± 0.3", "unit": "µM"}, {"measurement": "IC50", "setting": "HL-60/DOX; Homo sapiens", "value": "1.71 ± 0.2", "unit": "µM"}, {"measurement": "IC50", "setting": "HEK-293; [5]", "value": "0.89 ± 0.1", "unit": "µM"}]}]}
